Measured values: patent US9499537B2, “Antiviral pyrrolopyridine derivatives and method for preparing the same” (KOREA RESEARCH INSTITUTE OF CHEMICAL TECHNOLOGY, priority 2011, dated 2016)

Test system: MT-4 cells
Assay: Cytotoxicity test in MT-4 cells (MTT method)
Format: cell-based
Details: human
Method: In order to look into the HIV-1 inhibition effects of the compound of the present invention, an in vitro test for HIV-1 inhibition effects was carried out as follows according to a known method (H. Tanaka et al., J. Med. Chem., 1991, 34, 349). MT-4 cells were used as host cells, and the degree of the compound of the present invention inhibiting the cytotoxicity of the virus-infected MT-4 cells was investigated.
First, MT-4 cells were diffused at a concentration of 1×10^4 cell/well to a culture medium, and HIV-1 was inoculated so that the concentration was 500 TCI50 (concentration at which 50% of the cell is infected)/well. Immediately after the inoculation, the cell dispersion was transferred in 100 μL each to a flat microtiter plate in which the sample of the compound of the present invention was placed. The sample was incubated for approximately for 4 to 5 days at […], and the virus suppression effect was determined using an MTT method. In addition, the cytotoxicity was also determined by measuring the survivability of the experimentally virus-infected cells using an MTT method. As a comparative compound, azidothymidine (AZT) and raltegravir were used.

| SMILES | CC60 (μM) ** : concentration at 50% cell damage with respect to MT-4 cells [µM] |
| --- | --- |
| Cc1nc2c(c(C)c(C)n2CCC#N)c(-c2ccc(Cl)cc2)c1[C@H](OC(C)(C)C)C(=O)O [Example 30, (S)-2-Tert-butoxy-2-(4-(4-chlorophenyl)-1-(2-cyanoethyl)-2,3,6-trimethyl-1H-pyrrolo[2,3-b]pyridin-5-yl)acetic acid] | 30.86 |
| Cc1nc2c(c(C)c(C)n2CCC#N)c(-c2ccc(Cl)cc2)c1[C@@H](OC(C)(C)C)C(=O)O [Example 31, (R)-2-tert-butoxy-2-(4-(4-chlorophenyl)-1-(2-cyanoethyl)-2,3,6-trimethyl-1H-pyrrolo[2,3-b]pyridin-5-yl)acetic acid] | 86.73 |
| CCn1c(C)c(C)c2c(-c3ccc(Cl)cc3)c([C@H](OC(C)(C)C)C(=O)O)c(C)nc21 [Example 32, (S)-2-Tert-butoxy-2-(4-(4-chlorophenyl)-1-(ethyl)-2,3,6-trimethyl-1H-pyrrolo[2,3-b]pyridin-5-yl)acetic acid] | 23.48 |
| CCn1c(C)c(C)c2c(-c3ccc(Cl)cc3)c([C@@H](OC(C)(C)C)C(=O)O)c(C)nc21 [Example 33, (R)-2-tert-butoxy-2-(4-(4-chlorophenyl)-1-(ethyl)-2,3,6-trimethyl-1H-pyrrolo[2,3-b]pyridin-5-yl)acetic acid] | 25.5 |
| Cc1nc2c(ccn2C)c(-c2ccc(Cl)cc2)c1[C@H](OC(C)(C)C)C(=O)O [Example 34, (S)-2-Tert-butoxy-2-(4-(4-chlorophenyl)-1,6-dimethyl-1H-pyrrolo[2,3-b]pyridin-5-yl)acetic acid] | 78 |
| COc1cc(Cn2c(C)c(C)c3c(-c4ccc(Cl)cc4)c(C(OC(C)(C)C)C(=O)O)c(C)nc32)cc(Cl)n1 (stereo not drawn) [Example 35, 2-Tert-butoxy-2-(4-(4-chlorophenyl)-1-((2-chloro-6-methoxypyridin-4-yl)methyl)-2,3,6-trimethyl-1H-pyrrolo[2,3-b]pyridin-5-yl)acetic acid] | 14.86 |
| Cc1nc2c(c(C)c(C)n2Cc2ccncc2)c(-c2ccc(Cl)cc2)c1[C@H](OC(C)(C)C)C(=O)O [Example 36, (S)-2-Tert-butoxy-2-(4-(4-chlorophenyl)-1-(pyridin-4-ylmethyl)-2,3,6-trimethyl-1H-pyrrolo[2,3-b]pyridin-5-yl)acetic acid] | 24.49 |
| CCn1c(C)c(C)c2c(-c3ccccc3)c(C(OC(C)(C)C)C(=O)O)c(C)nc21 (stereo not drawn) [Example 37, 2-Tert-butoxy-2-(1-ethyl-2,3,6-trimethyl-4-phenyl-1H-pyrrolo[2,3-b]pyridin-5-yl)acetic acid] | 17 |
| CCn1c(C)c(C)c2c(-c3ccc(C)cc3)c(C(OC(C)(C)C)C(=O)O)c(C)nc21 (stereo not drawn) [Example 38, 2-Tert-butoxy-2-(1-ethyl-2,3,6-trimethyl-4-(para-tolyl)-1H-pyrrolo[2,3-b]pyridin-5-yl)acetic acid] | 40.34 |
| CCn1c(C)c(C)c2c(-c3ccc(F)cc3)c(C(OC(C)(C)C)C(=O)O)c(C)nc21 (stereo not drawn) [Example 39, 2-Tert-butoxy-2-(1-ethyl-4-(4-fluorophenyl)-2,3,6-trimethyl-1H-pyrrolo[2,3-b]pyridin-5-yl)acetic acid] | 78.47 |
| CCn1c(C)c(C)c2c(-c3ccc(C#N)cc3)c(C(OC(C)(C)C)C(=O)O)c(C)nc21 (stereo not drawn) [Example 40, 2-Tert-butoxy-2-(4-(4-cyanophenyl)-1-ethyl-2,3,6-trimethyl-1H-pyrrolo[2,3-b]pyridin-5-yl)acetic acid] | 91.58 |
| CCn1c(C)c(C)c2c(-c3ccc(OC)cc3)c(C(OC(C)(C)C)C(=O)O)c(C)nc21 (stereo not drawn) [Example 41, 2-(Tert-butoxy)-2-(1-ethyl-4-(4-methoxyphenyl)-2,3,6-trimethyl-1H-pyrrolo[2,3-b]pyridin-5-yl)acetic acid] | 31.49 |
| Cc1nc2c(c(C)c(C)n2Cc2cccs2)c(-c2ccc(Cl)cc2)c1[C@H](OC(C)(C)C)C(=O)O [Example 42, (S)-2-(Tert-butoxy)-2-(4-(4-chlorophenyl)-2,3,6-trimethyl-1-(thiophen-2-ylmethyl)-1H-pyrrolo[2,3-b]pyridin-5-yl)acetic acid] | 20.54 |
| Cc1nc2c(c(C)c(C)n2Cc2ccsc2)c(-c2ccc(Cl)cc2)c1[C@H](OC(C)(C)C)C(=O)O [Example 43, (S)-2-(Tert-butoxy)-2-(4-(4-chlorophenyl)-2,3,6-trimethyl-1-(thiophen-3-ylmethyl)-1H-pyrrolo[2,3-b]pyridin-5-yl)acetic acid] | 17.74 |
| Cc1nc2c(c(C)c(C)n2Cc2ccco2)c(-c2ccc(Cl)cc2)c1[C@H](OC(C)(C)C)C(=O)O [Example 44, (S)-2-(Tert-butoxy)-2-(4-(4-chlorophenyl)-1-(furan-2-ylmethyl)-2,3,6-trimethyl-1H-pyrrolo[2,3-b]pyridin-5-yl)acetic acid] | 18.06 |
| Cc1nc2c(c(C)c(C)n2CC2(C#N)CC2)c(-c2ccc(Cl)cc2)c1[C@H](OC(C)(C)C)C(=O)O [Example 47, (S)-2-(tert-butoxy)-2-(4-(4-chlorophenyl)-1-((1-cyanocyclopropyl)methyl)-2,3,6-trimethyl-1H-pyrrolo[2,3-b]pyridin-5-yl)acetic acid] | 16.64 |
| Cc1nc2c(c(C)c(C)n2CC2CCC2)c(-c2ccc(Cl)cc2)c1[C@H](OC(C)(C)C)C(=O)O [Example 48, (S)-2-(Tert-butoxy)-2-(4-(4-chlorophenyl)-1-(cyclobutylmethyl)-2,3,6-trimethyl-1H-pyrrolo[2,3-b]pyridin-5-yl)acetic acid] | 14.22 |
| Cc1nc2c(c(C)c(C)n2CC2CCCC2)c(-c2ccc(Cl)cc2)c1[C@H](OC(C)(C)C)C(=O)O [Example 49, (S)-2-(Tert-butoxy)-2-(4-(4-chlorophenyl)-1-(cyclopentylmethyl)-2,3,6-trimethyl-1H-pyrrolo[2,3-b]pyridin-5-yl)acetic acid] | 15.3 |
| Cc1nc2c(c(C)c(C)n2CC2CCCCC2)c(-c2ccc(Cl)cc2)c1[C@H](OC(C)(C)C)C(=O)O [Example 50, (S)-2-(Tert-butoxy)-2-(4-(4-chlorophenyl)-1-(cyclohexylmethyl)-2,3,6-trimethyl-1H-pyrrolo[2,3-b]pyridin-5-yl)acetic acid] | 10.32 |
| Cc1nc2c(c(C)c(C)n2CC(=O)N(C)C)c(-c2ccc(Cl)cc2)c1[C@H](OC(C)(C)C)C(=O)O [Example 51, (S)-2-(Tert-butoxy)-2-(4-(4-chlorophenyl)-1-(2-(dimethylamino)-2-oxoethyl)-2,3,6-trimethyl-1H-pyrrolo[2,3-b]pyridin-5-yl)acetic acid] | 96.68 |
| Cc1nc2c(c(C)c(C)n2CC2(O)CC2)c(-c2ccc(Cl)cc2)c1[C@H](OC(C)(C)C)C(=O)O [Example 52] | 34.33 |
| Cc1nc2c(c(C)c(C)n2Cc2cccnc2)c(-c2ccc(Cl)cc2)c1[C@H](OC(C)(C)C)C(=O)O [Example 53, (S)-2-(Tert-butoxy)-2-(4-(4-chlorophenyl)-2,3,6-trimethyl-1-(pyridin-3-ylmethyl)-1H-pyrrolo[2,3-b]pyridin-5-yl)acetic acid] | 53.33 |
| Cc1nc2c(c(C)c(C)n2CCF)c(-c2ccc(Cl)cc2)c1[C@H](OC(C)(C)C)C(=O)O [Example 54, (S)-2-(Tert-butoxy)-2-(4-(4-chlorophenyl)-1-(2-fluoroethyl)-2,3,6-trimethyl-1H-pyrrolo[2,3-b]pyridin-5-yl)acetic acid] | 18.82 |
| Cc1nc2c(c(C)c(C)n2Cc2cncnc2)c(-c2ccc(Cl)cc2)c1[C@H](OC(C)(C)C)C(=O)O [Example 55, (S)-2-(Tert-butoxy)-2-(4-(4-chlorophenyl)-2,3,6-trimethyl-1-(pyrimidin-5-ylmethyl)-1H-pyrrolo[2,3-b]pyridin-5-yl)acetic acid] | 64.73 |
| Cc1nc2c(c(C)c(C)n2Cc2cocn2)c(-c2ccc(Cl)cc2)c1[C@H](OC(C)(C)C)C(=O)O [Example 56, (S)-2-(Tert-butoxy)-2-(4-(4-chlorophenyl)-2,3,6-trimethyl-1-(oxazol-4-ylmethyl)-1H-pyrrolo[2,3-b]pyridin-5-yl)acetic acid] | 24.56 |
| Cc1nc2c(c(C)c(C)n2CC(=O)O)c(-c2ccc(Cl)cc2)c1[C@H](OC(C)(C)C)C(=O)O [Example 57, (S)-2-(Tert-butoxy)-2-(1-carboxymethyl)-(4-(4-chlorophenyl)-2,3,6-trimethyl-1H-pyrrolo[2,3-b]pyridin-5-yl)acetic acid] | >217.9 |
| Cc1nc2c(c(C)c(C)n2CC(F)(F)F)c(-c2ccc(Cl)cc2)c1[C@H](OC(C)(C)C)C(=O)O [Example 59, (S)-2-(Tert-butoxy)-2-(4-(4-chlorophenyl)-2,3,6-trimethyl-1-(2,2,2-trifluoromethyl)-1H-pyrrolo[2,3-b]pyridin-5-yl)acetic acid] | 5.3 |
